Entries after “also recorded” stand apart in the source; their conditions may differ.
What was measured:
Caco-2 cell monolayer = experiment: Caco-2 monolayer metabolism experiment, metabolites identified via UHPLC-DAD-MS(/MS); assay type: in vitro ADME, human; settings: for Extent of metabolism (in words) / Phase II conjugates containing glucuronic acid or sulfates / Phase II metabolites with glucuronic acid or sulfates: 3 and 5 h; for Extent of phase I and II metabolism (in words): independent of incubation time and concentration
Method: To obtain information on the in vitro metabolism of the six tested C-glycosidic flavonoids in the intestine, experiments were carried out using the Caco-2 monolayer model (Figure 2). Metabolite profiles were characterized at two different concentrations (10 and 100 µM; n = 3) and after two different incubation times (3 or 5 h; n = 3) in order to determine the influence of concentration and time on the metabolism reactions that occurred. Furthermore, to analyze the distribution of the observed metabolites, samples were collected from the cell lysate and the apical and basolateral compartments. All samples of the metabolism experiments using the Caco-2 cell monolayer were analyzed using UHPLC-DAD-MS and UHPLC-DAD-MS/MS. Metabolites were identified by libraries that were prepared for each compound (Tables S1–S6). The O and IO libraries contained 67 metabolites (Tables S1 and S2), the S and IS libraries contained 106 metabolites (Tables S3 and S4), and the V and IV libraries contained 71 possible metabolites (Tables S5 and S6).
To form a confluent and differentiated monolayer, cells at passages 16–45 were seeded into the inserts of 12-well Transwell® plates at a density of 3.0 × 10^5 cells/cm^2. Afterwards, the culture medium was replaced every day, and the metabolism experiment was performed 21 days after seeding. The apical and basolateral compartments contained 0.5 and 1.5 mL of cell culture medium, respectively.
On day 21, the cell culture medium was removed from the apical and basolateral compartments, and the Caco-2 cell monolayer was washed two times with prewarmed HBSS. The Transwell® plates containing HBSS were incubated at 37 °C for 15 min to measure the transepithelial electrical resistance (TEER) value. The integrity of the cell monolayers was evaluated by TEER values between the apical and basolateral sides with the Evohm2 system (World Precision Instruments, Sarasota, FL, USA). The cell inserts were only used for the metabolism experiments if the resistance exceeded 350 Ω/cm^2. The six test substances were dissolved in DMSO to a stock solution of 20 mM. The HBSS was adjusted to pH 6.0 and 7.4 with 1 M HCl. Afterwards, the stock solutions were diluted to 10 or 100 µM in an appropriate volume of HBSS (pH 6.0) to obtain a DMSO concentration of <1%. The test solutions were added to the apical side (0.5 mL), while the basolateral side was filled with 1.5 mL of HBSS (pH 7.4). The Transwell® plates were incubated at 37 °C for 3 or 5 h, respectively. After this period, solutions from the apical and basolateral compartments were collected in separate tubes, washed twice with 500 µL of HBSS, and then collected again. The samples were lyophilized and stored at −20 °C until they were measured using UHPLC-DAD-MS. After the experiment, Transwell® inserts were apically (0.5 mL) and basolaterally (1.5 mL) filled with HBSS and warmed to 37 °C for 20 min. Then, the TEER values were measured to guarantee the integrity of the monolayer during the experiment. The experiment was performed in triplicate for each substance, concentration, and incubation time.
After the metabolism experiment, cell monolayers were washed twice with PBS and incubated with 200 µL of trypsin-EDTA for 10 min at 37 °C in an atmosphere of 5% CO2 and constant humidity in the incubator. The cells were removed from the well by pipetting up and down, and were collected in a tube. The well was washed twice with PBS (1 mL), and the wash solution was also collected in the corresponding tube. The mixture was centrifuged (1000× g rpm, 5 min), and the supernatant was discarded.

[1] = MTT assay under metabolic conditions (cell viability); assay type: cell-based, human; settings: human, 5 h incubation, read-out: Viability of Caco-2 cells; for viability at 5 h, 10 µM: Caco-2, 10 µM in HBSS (pH 6.0); for viability at 5 h, 100 µM: Caco-2, 100 µM in HBSS (pH 6.0)
Method: (§1) All six substances were tested in five different dilutions in HBSS (pH 6.0). The determined viability values of O, IO, S, IS, V, and IV are listed in the Supplementary Materials (Figure S2).
(§2) Caco-2 cells in the logarithmic growth phase were seeded in 96-well plates at a density of 3 × 10^4 cells/well and incubated at 37 °C in an atmosphere of 5% CO2 and constant moisture in an incubator. After 24 h, the cell culture medium was removed, and 100 µL of HBSS solution (negative control), 0.5% DMSO in HBSS solution (solvent control), or flavonoid samples in HBSS solution (6 flavonoids at concentrations of 10, 25, 50, 75, and 100 µM) was applied in quintuplicate and incubated for 5 h. Afterwards, the HBSS solutions were removed and replaced with an MTT solution in DMEM (0.4 mg/mL) and incubated for another 3 h at 37 °C. Then, the MTT solution was discarded, and the cells were fixed with a 10% SDS solution in PBS and stored at room temperature in the dark. After 24 h, the absorbance was measured on a Tecan microplate reader (Tecan Trading AG, Switzerland) at 560 nm. The viability rate was calculated as % = A/A0 × 100, with A as the average absorbance value of the treatment and solvent control groups and A0 as the average absorbance value of the negative control group. The assay was performed three times in pentaplicate.
(§3) The human colon adenocarcinoma cell line Caco-2 was obtained from the ATCC (American Type Culture Collection, Manassas, VA, USA). The cell line was determined to be free of mycoplasma contamination by PCR and culture from GATC Biotech AG (Konstanz, Germany). The cells were cultured in DMEM supplemented with 10% (v/v) FBS, 1% (v/v) NEAA, and 1% (v/v) antibiotics (penicillin/streptomycin) in an atmosphere of 5% CO2 and 90% relative humidity at 37 °C. The culture medium was replaced every 3 days, and the cells were split 1:5 using trypsin-EDTA once 90% confluence was obtained.

Caco-2 cells = experiment: as above; assay type: cell-based, human; settings: 10, 25, 50, 75, 100 µM in HBSS (pH 6.0), 5 h incubation
Method: as §1, §2, §3

[2] = Stability testing in test buffer (HBSS pH 6.0) under assay conditions, HPLC-DAD; assay type: physicochemical; settings: 10 µM in HBSS pH 6.0, 37 °C, 5% CO2
Method: To guarantee the stability of all test substances during the metabolism assay on Caco-2 cells, they were incubated in the test buffer under assay conditions. Test samples were collected each hour for 5 h and were measured via HPLC-DAD.
To ensure stability during the Caco-2 metabolism experiments, all test substances were dissolved in DMSO to a concentration of 20 mM and diluted to 10 µM in an appropriate volume of HBSS (pH 6.0), resulting in a DMSO concentration of less than 1%. The test solution (1 mL) was aliquoted into a 12-well Transwell® plate and incubated for 5 h in an atmosphere of 5% CO2 and 90% relative humidity at 37 °C. Test samples (100 µL) were collected after t = 0, 1, 2, 3, 4, and 5 h and measured via HPLC-DAD. The peak area of the test substance at time t = 0 h was defined as 100%, and all other peak areas were related to calculate the proportional stability. The stability was calculated as % = area/area0 × 100. Stability testing was performed on three independent days with freshly prepared solutions (n = 3).
The system consisted of the following: Elite LaChrom with an L2200 autosampler, L2130 pump, L2350 column oven, L2444 DAD, and EZChrom Elite 3.1.7 software (Hitachi, Tokyo, Japan); column: Kinetex® Biphenyl, 100 Å, 250-4.6 mm (5 µm, same material precolumn; Phenomenex, Torrance, CA, USA); injection volume 30 µL; oven temp.: 25 °C; autosampler temp.: 10 °C; detection wavelength: 340 nm; flow: 1.2 mL/min; A = H2O + 0.1% TFA, B = acetonitrile + 0.1% TFA; gradient: 0–2 min 10% B, 2–10 min 10% B → 100% B, 10–11 min 100% B → 10% B, 11–15 min 10% B.

[3] = initial concentration 10 µM, 3 h, apical compartment
[4] = initial concentration 10 µM, 5 h, apical compartment
[5] = initial concentration 100 µM, 3 h, apical compartment
[6] = initial concentration 100 µM, 3 h, basolateral compartment
[7] = initial concentration 100 µM, 5 h, apical compartment

| Compound | Extent of metabolism (in words) (Caco-2 cell monolayer; 10 µM) | Metabolites of the aglycones (cleavage of the C–C glycosidic bond) (Caco-2 cell monolayer; 100 µM approach) | Extent of metabolism (in words) (Caco-2 cell monolayer; 100 µM) | Possible metabolite (phase II metabolite identified by MS/MS fragmentation and comparison with reference compound after enzymatic hydrolysis) (Caco-2 cell monolayer; glucuronidase/sulfatase cleavage, UHPLC-DAD-MS/MS) | Extent of phase I and II metabolism (in words) (Caco-2 cell monolayer) | Possible metabolite detected (Caco-2 cell monolayer; [3]) | Possible metabolite detected (Caco-2 cell monolayer; [4]) | Possible metabolite detected (Caco-2 cell monolayer; [5]) | Possible metabolite detected (Caco-2 cell monolayer; [6]) | Possible metabolite detected (Caco-2 cell monolayer; [7]) | viability at 5 h, 10 µM [1] [%] | viability at 5 h, 100 µM [1] [%] | Effect on the viability of Caco-2 cells (in words) (Caco-2 cells) | Stability (content relative to t = 0 h) ([2]; after 3 h of incubation) | Stability (content relative to t = 0 h) ([2]; after 5 h incubation) [%] | Phase II conjugates containing glucuronic acid or sulfates (Caco-2 cell monolayer; 10 µM) | Phase II metabolites with glucuronic acid or sulfates (Caco-2 cell monolayer; 100 µM) |
| --- | --- | --- | --- | --- | --- | --- | --- | --- | --- | --- | --- | --- | --- | --- | --- | --- | --- |
| O=c1cc(-c2ccc(O)cc2)oc2cc(O)c([C@@H]3O[C@H](CO)[C@@H](O)[C@H](O)[C@H]3O)c(O)c12 [IV, isovitexin] | broader ranges of phase I and II metabolites | metabolites of the corresponding aglycones apigenin and luteolin were also detected | extensive metabolism | Methoxy-luteolin-sulfate | highly metabolized in phase I and II reactions | Hydroxy-methoxy-isovitexin; also recorded: Hydroxy-apigenin-sulfate; also recorded: Hydroxy-methoxy-apigenin | Hydroxy-methoxy-isovitexin; also recorded: Hydroxy-dimethoxy-isovitexin; also recorded: Hydroxy-apigenin-sulfate | Hydroxy-apigenin-sulfate; also recorded: Hydroxy-dimethoxy-isovitexin; also recorded: Hydroxy-methoxy-apigenin; also recorded: Hydroxy-methoxy-isovitexin | Hydroxy-dimethoxy-isovitexin | Hydroxy-methoxy-isovitexin; also recorded: Hydroxy-apigenin-sulfate; also recorded: Hydroxy-dimethoxy-isovitexin; also recorded: Hydroxy-methoxy-apigenin | 92 | 82 | slight, concentration-dependent reductions | 96% | 95 | – | – |
| O=c1cc(-c2ccc(O)cc2)oc2c([C@@H]3O[C@H](CO)[C@@H](O)[C@H](O)[C@H]3O)c(O)cc(O)c12 [V, vitexin] | very limited metabolism | – | a few hydroxylated and methoxylated derivatives | – | poorly metabolized in phase I and II reactions | – | – | Hydroxy-methoxy-vitexin | Hydroxy-methoxy-vitexin | Hydroxy-vitexin | 92 | 83 | slight, concentration-dependent reductions | approximately 100% | – | No phase II conjugates containing glucuronic acid or sulfates were detectable | lacked the presence of phase II metabolites with glucuronic acid or sulfates |
| schaftoside | very limited metabolism | – | a few hydroxylated and methoxylated derivatives | – | poorly metabolized in phase I and II reactions | Hydroxy-methoxy-schaftoside | Hydroxy-methoxy-schaftoside | Hydroxy-methoxy-schaftoside | Hydroxy-methoxy-schaftoside | Hydroxy-methoxy-schaftoside | – | – | no significant effects at any concentration | approximately 100% | – | No phase II conjugates containing glucuronic acid or sulfates were detectable | lacked the presence of phase II metabolites with glucuronic acid or sulfates |
